We go through 62 molecules from a melting point compilation (Tetko et al.; mined from patent text by program, amines drawn as free bases though some values may be those of a salt).

`COCc1cnc2c(NC(=O)c3c(Cl)cccc3Cl)cc(C)cc2c1-n1ccnc1` showed a melting point of 99 to 101 °C. `O=C(Nc1ccc(-n2ccnc2)cc1)Nc1ccc(C(F)(F)F)cc1` gave a melting point of 209 to 213 °C. Regarding `COc1ccc(NC(=O)c2ccc(-c3ccc(-c4noc(C)n4)cc3C)cc2)cc1OCCN`, the melting point is 150 to 153 °C.

With `CCOP(=O)(OCC)C(O)c1ccccc1` (configuration not stated), the melting point was in the range of 83 to 83.5 °C. Molecule `O=C(O)C(c1ccc2c(c1)OCO2)n1nc(-c2ccccn2)ccc1=O` (configuration not stated) displayed a melting point of 115 °C. Take `O=C(NCC(C(=O)O)C(F)(F)F)Nc1ccccc1` (configuration not stated): the melting point was 180 to 181 °C. For `CS(=O)(=O)c1ccc(N2CC=C(N3CCCC3)CC2)cc1` the value was 141 to 143 °C; for `CCc1c(C)c2c(c(OS(=O)(=O)c3ccc(C)cc3)c1C/C=C(\C)CCC(=O)OC)C(=O)OC2`, 101 to 103 °C; for `O=C(O)CO[C@@H]1COc2nc([N+](=O)[O-])cn2C1`, 178 to 179 °C.

`O=C(Cc1ccncc1)c1ccc(Cl)cc1` yielded a melting point of 95.5 to 97.3 °C. For `Cc1ccc(Cc2ccc(-c3cnn4c(O)ncnc34)cc2)cc1`, the melting point lay in the range of 285 to 292 °C.

In turn, `Cc1cc(COc2ccc(S(=O)(=O)NC[C@@H](C(=O)NO)N3CCNCC3)cc2)c2ccccc2n1` displayed a melting point of 225 °C. For `COc1ccccc1N1CCN(CCCOc2ccc(-c3cn4cccnc4n3)cc2)CC1`, the melting point was 156 to 158 °C. The molecule `CCN1c2ncc([N+](=O)[O-])cc2C(=O)N(C)c2cccnc21` showed a melting point of 148 to 149 °C.

Molecule `COc1nc2cc(Cl)c(Cl)cc2nc1NS(=O)(=O)c1cccc(Cl)c1Cl` showed a melting point of 283 to 285 °C. For `CN1Cc2cccc(Cl)c2S1(=O)=O` the value was 95 to 97 °C. On to `CCOCc1cc2cc(Cl)ccc2oc1=Nc1ccc(OC)cc1`, for which the melting point lay in the range of 136 to 138 °C. For the molecule `COC(=O)Cc1cc(O)c(C(C)(C)C)cc1C`, the melting point lay within 100 to 102 °C. For `CN1CCOc2ccc(S(=O)(=O)n3c(Cc4ccc(C(=O)O)cc4)cc4cc(C(F)(F)F)ccc43)cc21` the value was 206 °C. In turn, `CCOC(=O)c1ccc(CCC(=O)O)cc1` came in with a melting point of 108 to 110 °C. Molecule `Oc1ccc(-c2nnnc(-c3cccc4ccccc34)c2-c2ccc(O)cc2O)c(O)c1` had a melting point of over 280 °C. Regarding `O=C(O)c1ccc(-c2cn(-c3ccc(OC(F)(F)F)cc3)cn2)cc1`, the melting point came to 230 °C.

The molecule `C[C@@H](n1cnc2c(Br)cc(Br)cc2c1=O)[C@](O)(Cn1cncn1)c1ccc(F)cc1F` had a melting point of 134 to 135 °C. `O=S1(=O)N(CCCN2CC=C(c3ccccc3)CC2)c2cccc3cccc(c23)N1CCCN1CC=C(c2ccccc2)CC1` yielded a melting point of 140 °C. On to `CC1(C)OC(=O)Nc2ccc(-c3ccc(Cl)cc3)cc21`, for which the melting point lay within 255 to 257 °C. Take `CCOC(=O)Cc1ccc(NC(=O)/C=C/c2c(C)noc2-c2ccccc2)cc1`: the melting point fell in the range of 164 to 165 °C.

As to `O=C(CC1CCCC1)c1ccc(Cn2ccc3ncnc-3c2)cc1`, the melting point lay within 153 to 156 °C. The molecule `Cc1ccc(N=C2NCCN2)cc1NS(C)(=O)=O` came in with a melting point of 124 to 126 °C. With `CCCN(Cc1ccc(-c2ccccc2-c2nnn[nH]2)cc1)c1nc(C)nnc1C(=O)OCC`, the melting point fell in the range of 120 to 122 °C. For `COC(=O)C=Cc1ccc(OCCN(C)c2ccccn2)cc1` the value was 93 to 95 °C. `COc1ccc2cc3ncc(C#N)c(Nc4ccc(Cl)cc4Cl)c3cc2c1` yielded a melting point of 215 to 217 °C. As to `O=C1O[C@@H](CO)CN1c1ccc(C2=CCOCC2)c(F)c1`, the melting point fell in the range of 127 to 130 °C. For `O=C(O)c1cnc2n(c1=O)CCc1ccccc1-2` the value was 215 to 217 °C. The molecule `CC(C)c1ccc(N)c(C(=O)NCC2CCN(C(c3ccccc3)c3ccccc3)CC2)c1` came in with a melting point of 114 to 116 °C. Molecule `CC(C)(C)c1cc(SC(=O)NN)cc(C(C)(C)C)c1O` came in with a melting point of 130 to 131 °C. Molecule `CC(C)Nc1nc2cc(Cl)c(Cl)cc2n1[C@H]1C[C@@H](CO)[C@H](O)[C@@H]1O` came in with a melting point of 137 to 138 °C.

In the case of `O=C1Nc2cc(C(F)(F)F)cc(C(F)(F)F)c2C1=O`, the melting point was in the range of 200 to 203 °C.

For the molecule `COCCOc1ccc(CCCO)c(Oc2ncc(Cl)cc2Cl)c1`, the melting point was in the range of 83.9 to 84.5 °C. For `COc1cc2ncn([C@H](C)[C@](O)(Cn3cncn3)c3ccc(F)cc3F)c(=O)c2cc1OC` the value was 157 to 159 °C.

The molecule `CC(C)(C)OC(=O)N1CCC2(CC1)CC(=O)N(OCC#N)C2=O` gave a melting point of 138 to 139 °C. For `CCCCn1cnc2c(OCc3cccs3)nc(Nc3ccc(OCC)nc3)nc21` the value was 112 to 114 °C; for `CC(C)Nc1cncc(C(=NCCO[N+](=O)[O-])NC#N)c1`, 123 °C. The figure for `C[C@H](NC(=O)c1ncc[nH]1)C(=O)NC(C=O)CC(=O)O` (some centres not stated) is 115 °C; for `O=[N+]([O-])c1cnn2c(-c3cccnc3)ccnc12` it is 302 to 303 °C. In turn, `CCOC(=O)CCCCCCn1cnc2ccncc21` had a melting point of 64 to 65 °C.

`N#Cc1ccc(CN2CCN(c3cc(-c4ccccc4)c4ccc(=O)ccn34)CC2)cc1` registered a melting point of 196 °C.

On to `CC(=O)Oc1ccc(C=CC(=O)NC23CC4CC(CC(C4)C2)C3)cc1[N+](=O)[O-]`, for which the melting point fell in the range of 179 to 180 °C.

`O=c1[nH]c2cc([N+](=O)[O-])ccc2c(=O)n1N1CC=C(c2ccc(Cl)cc2)CC1`: the melting point is 210 to 212 °C. Molecule `CC(C)Nc1nc2c(F)c(Cl)c(Cl)cc2[nH]1` came in with a melting point of 212 to 215 °C. In turn, `Cc1cc(C)c(/C=C/C2OCC(C)(C)CO2)c(Br)c1` had a melting point of 54 to 56 °C. For the molecule `N#CCC1CCN(C(c2ccccc2)c2ccccc2)CC1`, the melting point was 103 to 104 °C. Take `N#Cc1c(Cl)c2ccccc2[nH]c1=O`: the melting point was over 250 °C. Take `N=C(N)c1ccc(C(=O)N2CCCCC2C(=O)N2CCC(OCC(=O)O)CC2)cc1` (configuration not stated): the melting point lay in the range of 233 to 234 °C. The figure for `O=c1[nH]c2cc([N+](=O)[O-])ccc2n(Cc2ccc(P(=O)(O)O)cc2)c1=O` is 253 to 265 °C; for `Cc1nc(-c2ccc(C(F)(F)F)cc2)sc1C(=O)N[C@H](C)[C@](O)(Cn1cncn1)c1ccc(F)cc1F` it is 79 to 82 °C. The figure for `CCOC(=O)c1ccc(N2CCN(CC(=O)c3ccc(Cl)cc3)CC2)cc1` is 150 to 152 °C. Molecule `COc1ccc(C(OCC2OC(n3cnc4c(NC(=O)c5ccccc5)ncnc43)C(O)C2O[Si](C)(C)C(C)(C)C)(c2ccccc2)c2ccccc2)cc1` (configuration not stated) registered a melting point of 189 °C. As to `O=c1nc(-c2cccc(Br)c2)sc2ccccc12`, the melting point turned out to be 162 °C. Regarding `CN1CCN(C2=Nc3ccccc3Sc3ccccc32)C[C@H]1Cc1ccccc1`, the melting point lay within 46 to 63 °C. On to `c1ccc(CN(c2ccccc2)c2ccccc2)cc1`, for which the melting point amounted to 86 °C.

`CCOC(=O)CCCn1c2c(c(=O)n3nc(-c4ccccc4)cc13)CN(C1CCCCC1)C2=O` registered a melting point of 195 to 196 °C. For `CC(O)c1cc(C(F)(F)F)cc(S(N)(=O)=O)c1` (configuration not stated) the value was 169 to 170 °C.

Broadly, the melting point is the temperature of the solid-liquid transition.
